Measured values: the NIST ThermoML archive (doi:10.1016/j.jct.2008.01.024)
Numbers after ± are expanded uncertainties.

Columns and labels:
[1] = Liquid; for mass density: 298.15 K, 101.33 kPa; for vapor or sublimation pressure: Ebulliometric method (Recirculating still)
[2] = excess molar enthalpy (molar enthalpy of mixing); xn = mol fraction of the nth substance listed; conditions: 101 kPa, Liquid, Flow calorimetry

**Q.** Which mass density [1] does the source give for `ClCCCl` [1,2-dichloroethane] here?
**A.** The mass density was 1245.6 ± 0.76 kg/m3.

**Q.** And the “vapor or sublimation pressure” value ([1]; 313.15 K)?
**A.** The value was 20.75 ± 0.025 kPa.

**Q.** What does the source list for `ClCCCl` [1,2-dichloroethane] + CN1CCCC1=O?
**A.** excess molar enthalpy ([2]; 298.15 K, x2 = 0.057): -0.0545 ± 0.00263 kcal/mol; excess molar enthalpy ([2]; 298.15 K, x2 = 0.105): -0.111 ± 0.00239 kcal/mol; excess molar enthalpy ([2]; 298.15 K, x2 = 0.203): -0.198 ± 0.00239 kcal/mol; excess molar enthalpy ([2]; 298.15 K, x2 = 0.301): -0.2624 ± 0.00239 kcal/mol; excess molar enthalpy ([2]; 298.15 K, x2 = 0.4): -0.2949 ± 0.00239 kcal/mol; excess molar enthalpy ([2]; 298.15 K, x2 = 0.5): -0.3021 ± 0.00263 kcal/mol; excess molar enthalpy ([2]; 298.15 K, x2 = 0.601): -0.2825 ± 0.00239 kcal/mol; excess molar enthalpy ([2]; 298.15 K, x2 = 0.702): -0.238 ± 0.00239 kcal/mol; excess molar enthalpy ([2]; 298.15 K, x2 = 0.805): -0.175 ± 0.00215 kcal/mol; excess molar enthalpy ([2]; 298.15 K, x2 = 0.909): -0.0935 ± 0.00215 kcal/mol; excess molar enthalpy ([2]; 298.15 K, x2 = 0.961): -0.0433 ± 0.00215 kcal/mol; excess molar enthalpy ([2]; 308.15 K, x2 = 0.058): -0.0578 ± 0.00263 kcal/mol; excess molar enthalpy ([2]; 308.15 K, x2 = 0.107): -0.113 ± 0.00239 kcal/mol; excess molar enthalpy ([2]; 308.15 K, x2 = 0.207): -0.202 ± 0.00239 kcal/mol; excess molar enthalpy ([2]; 308.15 K, x2 = 0.307): -0.266 ± 0.00239 kcal/mol; excess molar enthalpy ([2]; 308.15 K, x2 = 0.407): -0.2985 ± 0.00263 kcal/mol; excess molar enthalpy ([2]; 308.15 K, x2 = 0.507): -0.3043 ± 0.00263 kcal/mol; excess molar enthalpy ([2]; 308.15 K, x2 = 0.607): -0.2837 ± 0.00239 kcal/mol; excess molar enthalpy ([2]; 308.15 K, x2 = 0.708): -0.238 ± 0.00239 kcal/mol; excess molar enthalpy ([2]; 308.15 K, x2 = 0.808): -0.174 ± 0.00215 kcal/mol; excess molar enthalpy ([2]; 308.15 K, x2 = 0.909): -0.0927 ± 0.00215 kcal/mol; excess molar enthalpy ([2]; 308.15 K, x2 = 0.95): -0.0523 ± 0.00215 kcal/mol; excess molar enthalpy ([2]; 308.15 K, x2 = 0.97): -0.0344 ± 0.00215 kcal/mol

**Q.** With `ClCCCCCl` [1,4-dichlorobutane] as the compound, how does the mass density [1] read?
**A.** Its mass density is 1133.63 ± 4.8 kg/m3.

**Q.** And the “vapor or sublimation pressure” value ([1]; 323.15 K)?
**A.** The value was 2.205 ± 0.011 kPa.

**Q.** Which excess molar enthalpy ([2]; 298.15 K, x2 = 0.064) does the source give for `ClCCCCCl` [1,4-dichlorobutane] + CN1CCCC1=O here?
**A.** Its excess molar enthalpy is -0.0301 ± 0.00143 kcal/mol.

**Q.** What about the excess molar enthalpy ([2]; 298.15 K, x2 = 0.113) of the same compound?
**A.** The excess molar enthalpy was -0.0535 ± 0.00143 kcal/mol.

**Q.** And the excess molar enthalpy ([2]; 298.15 K, x2 = 0.21)?
**A.** Its excess molar enthalpy is -0.097 ± 0.00143 kcal/mol.

**Q.** And the excess molar enthalpy ([2]; 298.15 K, x2 = 0.308)?
**A.** Its excess molar enthalpy is -0.131 ± 0.00167 kcal/mol.

**Q.** What about the excess molar enthalpy ([2]; 298.15 K, x2 = 0.406) of the same compound?
**A.** Its excess molar enthalpy is -0.152 ± 0.00167 kcal/mol.

**Q.** What about the excess molar enthalpy ([2]; 298.15 K, x2 = 0.505) of the same compound?
**A.** Its excess molar enthalpy is -0.162 ± 0.00167 kcal/mol.

**Q.** What about the excess molar enthalpy ([2]; 298.15 K, x2 = 0.604) of the same compound?
**A.** Its excess molar enthalpy is -0.158 ± 0.00167 kcal/mol.

**Q.** And the excess molar enthalpy ([2]; 298.15 K, x2 = 0.703)?
**A.** The excess molar enthalpy was -0.139 ± 0.00167 kcal/mol.

**Q.** What about the excess molar enthalpy ([2]; 298.15 K, x2 = 0.803) of the same compound?
**A.** Its excess molar enthalpy is -0.107 ± 0.00167 kcal/mol.

**Q.** What about the excess molar enthalpy ([2]; 298.15 K, x2 = 0.903) of the same compound?
**A.** Its excess molar enthalpy is -0.0605 ± 0.00143 kcal/mol.

**Q.** What about the excess molar enthalpy ([2]; 298.15 K, x2 = 0.954) of the same compound?
**A.** The excess molar enthalpy was -0.032 ± 0.00143 kcal/mol.

**Q.** And the excess molar enthalpy ([2]; 308.15 K, x2 = 0.06)?
**A.** The excess molar enthalpy was -0.028 ± 0.00143 kcal/mol.

**Q.** What about the excess molar enthalpy ([2]; 308.15 K, x2 = 0.109) of the same compound?
**A.** The excess molar enthalpy was -0.0523 ± 0.00143 kcal/mol.

**Q.** What about the excess molar enthalpy ([2]; 308.15 K, x2 = 0.207) of the same compound?
**A.** The excess molar enthalpy was -0.0942 ± 0.00143 kcal/mol.

**Q.** What about the excess molar enthalpy ([2]; 308.15 K, x2 = 0.305) of the same compound?
**A.** The excess molar enthalpy was -0.125 ± 0.00143 kcal/mol.

**Q.** And the excess molar enthalpy ([2]; 308.15 K, x2 = 0.403)?
**A.** The excess molar enthalpy was -0.147 ± 0.00167 kcal/mol.

**Q.** What about the excess molar enthalpy ([2]; 308.15 K, x2 = 0.501) of the same compound?
**A.** Its excess molar enthalpy is -0.156 ± 0.00167 kcal/mol.

**Q.** What about the excess molar enthalpy ([2]; 308.15 K, x2 = 0.599) of the same compound?
**A.** The excess molar enthalpy was -0.152 ± 0.00167 kcal/mol.

**Q.** And the excess molar enthalpy ([2]; 308.15 K, x2 = 0.698)?
**A.** Its excess molar enthalpy is -0.135 ± 0.00167 kcal/mol.

**Q.** And the excess molar enthalpy ([2]; 308.15 K, x2 = 0.797)?
**A.** The excess molar enthalpy was -0.103 ± 0.00143 kcal/mol.

**Q.** What about the excess molar enthalpy ([2]; 308.15 K, x2 = 0.895) of the same compound?
**A.** Its excess molar enthalpy is -0.0586 ± 0.00143 kcal/mol.

**Q.** And the excess molar enthalpy ([2]; 308.15 K, x2 = 0.945)?
**A.** The excess molar enthalpy was -0.0294 ± 0.00143 kcal/mol.

**Q.** What about the excess molar enthalpy ([2]; 308.15 K, x2 = 0.964) of the same compound?
**A.** Its excess molar enthalpy is -0.0189 ± 0.00143 kcal/mol.

**Q.** With `ClCCCCCCCl` [1,6-dichlorohexane] as the compound, how does the mass density [1] read?
**A.** Its mass density is 1063.7 ± 2 kg/m3.

**Q.** Which excess molar enthalpy ([2]; 298.15 K, x2 = 0.068) does the source give for `ClCCCCCCCl` [1,6-dichlorohexane] + CN1CCCC1=O here?
**A.** The excess molar enthalpy was -0.0108 ± 0.000956 kcal/mol.

**Q.** And the excess molar enthalpy ([2]; 298.15 K, x2 = 0.116)?
**A.** The excess molar enthalpy was -0.0191 ± 0.000956 kcal/mol.

**Q.** What about the excess molar enthalpy ([2]; 298.15 K, x2 = 0.212) of the same compound?
**A.** The excess molar enthalpy was -0.0311 ± 0.000956 kcal/mol.

**Q.** What about the excess molar enthalpy ([2]; 298.15 K, x2 = 0.309) of the same compound?
**A.** Its excess molar enthalpy is -0.0404 ± 0.0012 kcal/mol.

**Q.** What about the excess molar enthalpy ([2]; 298.15 K, x2 = 0.405) of the same compound?
**A.** The excess molar enthalpy was -0.0457 ± 0.0012 kcal/mol.

**Q.** What about the excess molar enthalpy ([2]; 298.15 K, x2 = 0.503) of the same compound?
**A.** Its excess molar enthalpy is -0.0478 ± 0.0012 kcal/mol.

**Q.** And the excess molar enthalpy ([2]; 298.15 K, x2 = 0.6)?
**A.** The excess molar enthalpy was -0.0457 ± 0.0012 kcal/mol.

**Q.** And the excess molar enthalpy ([2]; 298.15 K, x2 = 0.699)?
**A.** The excess molar enthalpy was -0.0394 ± 0.0012 kcal/mol.

**Q.** And the excess molar enthalpy ([2]; 298.15 K, x2 = 0.797)?
**A.** The excess molar enthalpy was -0.0294 ± 0.000956 kcal/mol.

**Q.** What about the excess molar enthalpy ([2]; 298.15 K, x2 = 0.896) of the same compound?
**A.** The excess molar enthalpy was -0.0155 ± 0.000956 kcal/mol.

**Q.** And the excess molar enthalpy ([2]; 298.15 K, x2 = 0.946)?
**A.** The excess molar enthalpy was -0.00765 ± 0.000956 kcal/mol.

**Q.** What about the excess molar enthalpy ([2]; 308.15 K, x2 = 0.041) of the same compound?
**A.** Its excess molar enthalpy is -0.0055 ± 0.000956 kcal/mol.

**Q.** What about the excess molar enthalpy ([2]; 308.15 K, x2 = 0.06) of the same compound?
**A.** The excess molar enthalpy was -0.00789 ± 0.000956 kcal/mol.

**Q.** And the excess molar enthalpy ([2]; 308.15 K, x2 = 0.109)?
**A.** Its excess molar enthalpy is -0.0148 ± 0.000956 kcal/mol.

**Q.** And the excess molar enthalpy ([2]; 308.15 K, x2 = 0.207)?
**A.** The excess molar enthalpy was -0.0244 ± 0.000956 kcal/mol.

**Q.** What about the excess molar enthalpy ([2]; 308.15 K, x2 = 0.305) of the same compound?
**A.** Its excess molar enthalpy is -0.0325 ± 0.000956 kcal/mol.

**Q.** And the excess molar enthalpy ([2]; 308.15 K, x2 = 0.403)?
**A.** Its excess molar enthalpy is -0.037 ± 0.000956 kcal/mol.

**Q.** What about the excess molar enthalpy ([2]; 308.15 K, x2 = 0.502) of the same compound?
**A.** Its excess molar enthalpy is -0.0387 ± 0.000956 kcal/mol.

**Q.** What about the excess molar enthalpy ([2]; 308.15 K, x2 = 0.6) of the same compound?
**A.** Its excess molar enthalpy is -0.0363 ± 0.000956 kcal/mol.

**Q.** And the excess molar enthalpy ([2]; 308.15 K, x2 = 0.699)?
**A.** Its excess molar enthalpy is -0.032 ± 0.000956 kcal/mol.

**Q.** What about the excess molar enthalpy ([2]; 308.15 K, x2 = 0.799) of the same compound?
**A.** The excess molar enthalpy was -0.0241 ± 0.000956 kcal/mol.

**Q.** What about the excess molar enthalpy ([2]; 308.15 K, x2 = 0.898) of the same compound?
**A.** The excess molar enthalpy was -0.0127 ± 0.000956 kcal/mol.

**Q.** And the excess molar enthalpy ([2]; 308.15 K, x2 = 0.948)?
**A.** Its excess molar enthalpy is -0.00598 ± 0.000956 kcal/mol.

**Q.** What about the excess molar enthalpy ([2]; 308.15 K, x2 = 0.968) of the same compound?
**A.** The excess molar enthalpy was -0.00335 ± 0.000956 kcal/mol.
